According to ChEMBL document CHEMBL1201862, “PubChem BioAssay data set” (2004):
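Five compound concentrations were applied to cells in 96-well plates for 48 hours; endpoints were derived by simple linear interpolation of the resulting dose-response curve. GI50: concentration for 50% inhibition of growth.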 Calls of active or inactive are those of the source. No stated cut-off is given here; in the data, active = GI50 up to about 1.1 µM and inactive = higher.

What was measured:
Assay in all cases: NCI tumour cell line growth inhibition, 48 h
[1] = test system: ACHN
[2] = test system: OVCAR-3
[3] = test system: SK-MEL-2
[4] = test system: NCI/ADR-RES
[5] = test system: HOP-62
[6] = test system: M14
[7] = test system: PC-3
[8] = test system: UO-31
[9] = test system: SNB-75
[10] = test system: DU-145
[11] = test system: IGROV-1
[12] = test system: CAKI-1
[13] = test system: T47D
[14] = test system: U-251
[15] = test system: HCT-116
[16] = test system: COLO 205
[17] = test system: MDA-N
[18] = test system: SF-268
[19] = test system: CCRF-CEM
[20] = test system: HCC 2998

| SMILES | GI50 [1] | GI50 [2] | GI50 [3] | GI50 [4] | GI50 [5] | GI50 [6] | GI50 [7] | GI50 [8] | GI50 [9] | GI50 [10] | GI50 [11] | GI50 [12] | GI50 [13] | GI50 [14] | GI50 [15] | GI50 [16] | GI50 [17] | GI50 [18] | GI50 [19] | GI50 [20] |
| --- | --- | --- | --- | --- | --- | --- | --- | --- | --- | --- | --- | --- | --- | --- | --- | --- | --- | --- | --- | --- |
| CC(C)C(C)/C=C\C(C)C1CCC2C3=CC=C4CC(O)CCC4(C)C3CCC21C (stereo not drawn) | > 42 µM (inactive) | > 51.1 µM (inactive) | > 62.1 µM (inactive) | > 41.3 µM (inactive) | > 51.1 µM (inactive) | > 46.8 µM (inactive) | > 56.2 µM (inactive) | > 48.3 µM (inactive) | > 42.8 µM (inactive) | 51.6 µM (inactive) | 31.4 µM (inactive) | > 43.7 µM (inactive) | 81.5 µM (inactive) | > 31.8 µM (inactive) | 39.8 µM (inactive) | 43.9 µM (inactive) | > 46.2 µM (inactive) | > 42.7 µM (inactive) | 19.8 µM (inactive) | – |
| C=CC[C@@]12CCC(=O)C=C1CCCC2=O | > 100 µM (inactive) | > 100 µM (inactive) | > 100 µM (inactive) | > 100 µM (inactive) | > 100 µM (inactive) | > 100 µM (inactive) | > 100 µM (inactive) | > 100 µM (inactive) | – | > 100 µM (inactive) | > 100 µM (inactive) | > 100 µM (inactive) | > 100 µM (inactive) | > 100 µM (inactive) | > 100 µM (inactive) | > 100 µM (inactive) | > 100 µM (inactive) | > 100 µM (inactive) | – | > 100 µM (inactive) |
| CC1CC(N)=C(C#N)C1(C#N)C#N (stereo not drawn) | > 100 µM (inactive) | – | > 100 µM (inactive) | > 100 µM (inactive) | – | > 100 µM (inactive) | > 100 µM (inactive) | > 100 µM (inactive) | 74.3 µM (inactive) | > 100 µM (inactive) | > 100 µM (inactive) | 24.3 µM (inactive) | > 100 µM (inactive) | > 100 µM (inactive) | > 100 µM (inactive) | > 100 µM (inactive) | > 100 µM (inactive) | > 100 µM (inactive) | – | > 100 µM (inactive) |
| COc1ccccc1[C@@H]1CCC2CC[C@@H](c3ccccc3OC)[N+]21Cc1ccccc1 (stereo partly drawn) | 3.3 µM (inactive) | 0.887 µM (active) | 1.51 µM (inactive) | 13 µM (inactive) | 2.33 µM (inactive) | 2.24 µM (inactive) | 1.25 µM (inactive) | 2.96 µM (inactive) | 2.15 µM (inactive) | 2.28 µM (inactive) | 1.34 µM (inactive) | 3.87 µM (inactive) | 0.349 µM (active) | 0.385 µM (active) | 1.6 µM (inactive) | 0.44 µM (active) | 0.632 µM (active) | 3.64 µM (inactive) | 1.73 µM (inactive) | – |
| CC1(C)OC[C@H](COCOP2(=O)Oc3ccc4ccccc4c3-c3c(ccc4ccccc34)O2)O1 | 18 µM (inactive) | 15.3 µM (inactive) | – | 18.3 µM (inactive) | 21.4 µM (inactive) | 16.3 µM (inactive) | 14.2 µM (inactive) | 18.3 µM (inactive) | – | 17.6 µM (inactive) | 23 µM (inactive) | – | 18.3 µM (inactive) | 18 µM (inactive) | 15 µM (inactive) | – | 13.5 µM (inactive) | 16 µM (inactive) | 27.6 µM (inactive) | 16.9 µM (inactive) |
| COc1ccc(-c2cc(-c3cc(F)c(Cl)cc3Cl)[nH]n2)cc1OC | 7.76 µM (inactive) | 15.2 µM (inactive) | 79.6 µM (inactive) | 25.1 µM (inactive) | 39.9 µM (inactive) | 75 µM (inactive) | 21.2 µM (inactive) | 85.3 µM (inactive) | 23.3 µM (inactive) | 33.1 µM (inactive) | 19.2 µM (inactive) | 50.8 µM (inactive) | 28.6 µM (inactive) | 26.9 µM (inactive) | 25.7 µM (inactive) | 19.2 µM (inactive) | 52.8 µM (inactive) | 29.2 µM (inactive) | 11.6 µM (inactive) | – |
| O=C1C(Cl)C2(CC(/C=C/c3ccccc3)=NN2c2cccc(S(=O)(=O)O)c2)N1c1nc2ccccc2s1 (stereo not drawn) | 16.6 µM (inactive) | – | 17.3 µM (inactive) | 28.2 µM (inactive) | – | 17.2 µM (inactive) | 16.1 µM (inactive) | 4.32 µM (inactive) | 15.3 µM (inactive) | – | 8.55 µM (inactive) | 9.46 µM (inactive) | 11 µM (inactive) | 14.7 µM (inactive) | 21.1 µM (inactive) | 19.2 µM (inactive) | 24.2 µM (inactive) | 20 µM (inactive) | 12.4 µM (inactive) | 14.4 µM (inactive) |
| N#CCCC1(CCC#N)CCCCCCCCC(CCC#N)(CCC#N)C(O)C1O (stereo not drawn) | > 100 µM (inactive) | > 100 µM (inactive) | > 100 µM (inactive) | > 100 µM (inactive) | 61.7 µM (inactive) | > 100 µM (inactive) | > 100 µM (inactive) | – | > 100 µM (inactive) | > 100 µM (inactive) | > 100 µM (inactive) | > 100 µM (inactive) | > 100 µM (inactive) | 46.7 µM (inactive) | > 100 µM (inactive) | > 100 µM (inactive) | > 100 µM (inactive) | 37.8 µM (inactive) | – | > 100 µM (inactive) |
